Data from patent US12673946B2, “Pyrimidin-4(3H)-one derivatives as TRPV4 antagonists” (RaQualia Pharma Inc., priority 2020, dated 2026).

Molecular target: T1, human TRPV4 (Homo sapiens, UniProt Q9HBA0)
T1 construct: host or cells: tetracycline-inducible Flp-In T-REx 293 cells
Assay: Hypotonicity-induced Ca2+ influx (Fluo-4, FDSS)
Type: cell-based
In short: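 Flp-In T-REx 293 cells with tetracycline-induced human TRPV4, loaded with Fluo-4 for 60 min at 25 °C. Compound added 5 min before hypotonic mannitol/CaCl2 solution. Ca2+ signal recorded for 4.5 min on FDSS.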

[1] = Flp-In T-REx 293 cells expressing human TRPV4, examples listed under heading 'Human IC50<50 nM'
[2] = Flp-In T-REx 293 cells stably expressing human TRPV4, compounds listed by potency bin (<10 nM Tables 96-1/96-2, <3 nM Table 97)

T1 sequence (Q9HBA0 whole entry): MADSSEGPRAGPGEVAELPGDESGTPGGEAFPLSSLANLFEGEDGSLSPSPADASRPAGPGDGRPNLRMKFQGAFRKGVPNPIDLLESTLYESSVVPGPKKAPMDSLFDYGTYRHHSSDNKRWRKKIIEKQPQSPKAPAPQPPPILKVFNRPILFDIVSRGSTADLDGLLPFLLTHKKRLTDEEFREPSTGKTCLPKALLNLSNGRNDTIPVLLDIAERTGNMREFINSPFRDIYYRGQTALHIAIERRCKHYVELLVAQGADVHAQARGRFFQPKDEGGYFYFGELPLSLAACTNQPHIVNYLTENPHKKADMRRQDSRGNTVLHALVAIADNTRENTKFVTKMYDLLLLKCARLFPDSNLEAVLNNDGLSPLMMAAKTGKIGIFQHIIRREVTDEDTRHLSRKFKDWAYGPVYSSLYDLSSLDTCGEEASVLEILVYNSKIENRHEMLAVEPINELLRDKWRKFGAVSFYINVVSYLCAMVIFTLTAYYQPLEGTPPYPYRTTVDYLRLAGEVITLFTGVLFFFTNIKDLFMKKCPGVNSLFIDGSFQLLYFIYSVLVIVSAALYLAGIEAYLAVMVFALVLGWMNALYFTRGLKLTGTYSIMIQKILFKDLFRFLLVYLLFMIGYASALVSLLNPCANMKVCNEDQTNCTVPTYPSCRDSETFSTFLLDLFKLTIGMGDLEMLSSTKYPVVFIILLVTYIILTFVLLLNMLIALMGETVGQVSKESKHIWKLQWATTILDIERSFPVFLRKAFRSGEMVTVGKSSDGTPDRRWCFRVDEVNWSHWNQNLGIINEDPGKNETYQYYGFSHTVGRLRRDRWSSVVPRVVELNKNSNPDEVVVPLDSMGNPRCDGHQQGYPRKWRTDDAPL

Compound	IC50 [1] [nM]	IC50 [2] [nM]
O=C(C(O)c1cc(Cl)cc(Cl)c1)N1CCCc2nc(C3(c4ccccc4)CC3)[nH]c(=O)c2C1 (stereo not drawn) [17-61]	< 50	
O=C([C@H](O)c1cccc(-c2cccc(C(F)(F)F)c2)c1)N1CCCc2nc(C3(c4cccc(Oc5ccccc5)c4)CC3)[nH]c(=O)c2C1 [52-8]	< 50	< 10
O=C([C@H](O)c1cccc(C(F)(F)F)c1)N1CCCc2nc(C3(c4cccc(-c5cccc(F)c5)c4)CC3)[nH]c(=O)c2C1 [42-58]	< 50	< 10
CC(C)c1cccc(C2(c3nc4c(c(=O)[nH]3)CN(C(=O)[C@H](O)c3cccc(C(F)(F)F)c3)CCC4)CC2)c1 [31-8]	< 50	< 3
O=C([C@H](O)c1cccc(-c2cc(Cl)cc(C(F)(F)F)c2)c1)N1CCCc2nc(C3(c4cccc(Cl)c4)CC3)[nH]c(=O)c2C1 [50-17]	< 50	< 10
O=C([C@H](O)c1cccc(C(F)(F)F)c1)N1CCc2nc(C3(c4cccc(C5CCCC5)c4)CC3)[nH]c(=O)c2C1 [27-2]	< 50	< 10
CC(C)(C)c1ccc(-c2cccc(CC(=O)N3CCCc4nc(C5(c6ccccc6)CC5)[nH]c(=O)c4C3)c2)cc1 [17-132]	< 50	
O=C([C@H](O)c1cccc(Cl)c1)N1CCCc2nc(C3(c4cccc(Oc5ccccc5)c4)CC3)[nH]c(=O)c2C1 [17-73]	< 50	< 3
CC(C)c1cncc(C2(c3nc4c(c(=O)[nH]3)CN(C(=O)C(O)c3cccc(C(C)(C)C)c3)CCC4)CC2)c1 (stereo not drawn) [19-4]	< 50	< 10
CN(C)S(=O)(=O)c1ccc(-c2cccc(C3(c4nc5c(c(=O)[nH]4)CN(C(=O)[C@H](O)c4cccc(C(F)(F)F)c4)CCC5)CC3)c2)cc1 [42-18]	< 50	< 10
O=C([C@H](O)c1cccc(-c2cccc(C3CC3)c2)c1)N1CCCc2nc(C3(c4cccc(Cl)c4)CC3)[nH]c(=O)c2C1 [50-10]	< 50	< 10
O=C([C@H](O)c1cccc(Cl)c1)N1CCCc2nc(C3(c4cccc(F)c4)CC3)[nH]c(=O)c2C1 [17-57]	< 50	
CC(C)(C)CCc1csc(C2(c3nc4c(c(=O)[nH]3)CN(C(=O)[C@H](O)c3cccc(C(F)(F)F)c3)CCC4)CC2)c1 [30-4]	< 50	< 10
N#Cc1ccc(-c2cccc(C3(c4nc5c(c(=O)[nH]4)CN(C(=O)[C@H](O)c4cccc(C(F)(F)F)c4)CCC5)CC3)c2)cc1F [42-67]	< 50	< 10
O=C([C@H](O)c1cccc(C(F)(F)F)c1)N1CCCc2nc(C3(c4cccc(C5=CCN(C(=O)C6(c7cccc(C(F)(F)F)c7)CC6)CC5)c4)CC3)[nH]c(=O)c2C1 [42-83]	< 50	< 3
Cn1cc(-c2cccc(C3(c4nc5c(c(=O)[nH]4)CN(C(=O)[C@H](O)c4cccc(C(F)(F)F)c4)CCC5)CC3)c2)cn1 [42-27]	< 50	< 10
CC(C)(C)c1cccc(-c2cccc([C@@H](O)C(=O)N3CCCc4nc(C5(c6cc(C7CCCCC7)cs6)CC5)[nH]c(=O)c4C3)c2)c1 [54-7]	< 50	< 10
O=C(C(O)c1cccc(-c2ccnc(C(F)(F)F)c2)c1F)N1CCc2nc(C3(c4ccccc4)CC3)[nH]c(=O)c2C1 (stereo not drawn) [44-23]	< 50	
N#Cc1ccc(-c2cccc(CC(=O)N3CCc4nc(C5(c6cccc(Cl)c6)CC5)[nH]c(=O)c4C3)c2)cc1 [14-115]	< 50	
O=C(Cc1cccc(-c2cccc(OC(F)(F)F)c2)c1)N1CCc2nc(C3(c4cccc(Cl)c4)CC3)[nH]c(=O)c2C1 [45-12]	< 50	< 10
O=C([C@H](O)c1cccc(C(F)(F)F)c1)N1CCCc2nc(C3(c4cccc(-c5ccc(C(F)(F)F)nc5)c4)CC3)[nH]c(=O)c2C1 [42-46]	< 50	< 3

Compound	IC50 [1] [nM]	IC50 [2] [nM]
CC(C)c1csc(C2(c3nc4c(c(=O)[nH]3)CN(C(=O)C(O)c3cccc(SC(F)(F)F)c3)CCC4)CC2)c1 (stereo not drawn) [18-19]	< 50	< 10
CC(C)Oc1ccc(-c2cccc(C(O)C(=O)N3CCc4nc(C5(c6ccccc6)CC5)[nH]c(=O)c4C3)c2)cc1 (stereo not drawn) [44-38]	< 50	
O=C([C@H](O)c1cccc(Br)c1)N1CCCc2nc(C3(c4ccccc4)CC3)[nH]c(=O)c2C1 [17-77]	< 50	< 10
COc1ccc(-c2cccc(C(O)C(=O)N3CCc4nc(C5(c6ccccc6)CC5)[nH]c(=O)c4C3)c2)cc1 (stereo not drawn) [44-58]	< 50	
O=C(NCc1ccccc1)c1csc(C2(c3nc4c(c(=O)[nH]3)CN(C(=O)[C@H](O)c3cccc(C(F)(F)F)c3)CCC4)CC2)c1 [59-6]	< 50	
O=C(C(O)c1cccc(-c2ccc(OC(F)(F)F)cc2)c1)N1CCc2nc(C3(c4ccccc4)CC3)[nH]c(=O)c2C1 (stereo not drawn) [44-24]	< 50	
O=C([C@H](O)c1cccc(-c2cc3ccccc3s2)c1)N1CCCc2nc(C3(c4cccc(Cl)c4)CC3)[nH]c(=O)c2C1 [50-2]	< 50	< 10
O=C([C@H](O)c1cccc(C(F)(F)F)c1)N1CCCc2nc(C3(c4cccc(C5=CCN(C(=O)[C@H]6CC[C@H](C(F)(F)F)CC6)CC5)c4)CC3)[nH]c(=O)c2C1 [42-77]	< 50	< 3
O=C([C@H](O)c1cccc(C(F)(F)F)c1)N1CCCc2nc(C3(c4cccc(C5CCN(CC(F)(F)F)CC5)c4)CC3)[nH]c(=O)c2C1 [31-1]	< 50	< 3
O=C([C@H](O)c1cccc(-c2csc3ccccc23)c1)N1CCCc2nc(C3(c4ccccc4)CC3)[nH]c(=O)c2C1 [49-24]	< 50	< 10
O=C([C@H](O)c1cccc(-c2cc(Cl)cc(OC(F)(F)F)c2)c1)N1CCc2nc(C3(c4ccccc4)CC3)[nH]c(=O)c2C1 [44-98]	< 50	< 3
O=C(C(O)c1ccccc1Oc1ccccc1)N1CCCc2nc(C3(c4cccc(Cl)c4)CC3)[nH]c(=O)c2C1 (stereo not drawn) [17-22]	< 50	< 10
O=C(C(O)c1cccc(-c2ccc(Cl)cc2)c1)N1CCCc2nc(C3(c4ccccc4)CC3)[nH]c(=O)c2C1 (stereo not drawn) [49-3]	< 50	< 10
O=C([C@H](O)c1cccc(-c2cccc(C(F)(F)F)n2)c1)N1CCc2nc(C3(c4cccc(Cl)c4)CC3)[nH]c(=O)c2C1 [45-6]	< 50	< 3
O=C([C@H](O)c1cccc(Cl)c1)N1CCCc2nc(C3(c4cccc(C5CCC(F)(F)CC5)c4)CC3)[nH]c(=O)c2C1 [29-4]	< 50	< 3
O=C([C@H](O)c1cccc(C(F)(F)F)c1)N1CCCc2nc(C3(c4cccc(-c5ccc(N6CCC(c7ccccc7)CC6)nc5)c4)CC3)[nH]c(=O)c2C1 [42-87]	< 50	< 10
O=C(C(O)c1cccc(SC(F)(F)F)c1)N1CCc2nc(C3(c4cccc(Cl)c4)CC3)[nH]c(=O)c2C1 (stereo not drawn) [14-18]	< 50	
CC(C)c1cccc(C2(c3nc4c(c(=O)[nH]3)CN(C(=O)Cc3cccc(-c5cccc(Cl)c5)c3)CCC4)CC2)c1 [31-15]	< 50	< 10
Cc1cc(Cl)cc(-c2cccc([C@@H](O)C(=O)N3CCCc4nc(C5(c6ccccc6)CC5)[nH]c(=O)c4C3)c2)c1 [49-29]	< 50	< 10
O=C([C@H](O)c1cccc(Cl)c1)N1CCCc2nc(C3(c4cc(-c5cnsc5)cs4)CC3)[nH]c(=O)c2C1 [39-2]	< 50	< 10
